# Test results as given in US20070213403A1, “TAMOXIFEN RESPONSE IN PRE-AND POST[…] CANCER PATIENTS” (priority 2004, published 2007).
# Assays:
# [1] = test system: premenopausal patients with stage II invasive breast cancer; assay: Randomised trial of two years of adjuvant tamoxifen vs control in premenopausal patients; type: in vivo, human
# Description: Premenopausal patients or patients under 50 years with stage II (pT2 N0 M0, pT1 N1 M0 and pT2, N1 M0) invasive breast cancer were enrolled in a clinical trial between 1986 -1991 and randomized to control (n=288) or two years of tamoxifen (n=276). All patients were radically operated by modified radical mastectomy or breast conserving surgery with axillary lymph node dissection (level one and two). After breast conserving surgery, radiotherapy (50 Gy) was given to the breast and in patients with axillary lymph node metastases locoregional radiotherapy was delivered. Patients were included irrespective of hormone receptor status. Randomization was performed by the Regional Oncologic Centre and oral informed consent registered for all patients. The study was approved by the ethical committee at Lund and Linkoping Universities.
# The patients were followed until 5 years with annual mammogram and physical examination and then within the national program by screening mammogram every 18th month.The median duration of follow-up for patients without breast cancer event was 13.9 years (95% Cl: 13.6-14.3). The median follow-up time was the same in the two treatment arms. • 2. Postmenopausal Patients
# (§1) 3-4 um sections of the paraffin embedded tissue arrays were dried, deparaffinized, rehydrated and microwave treated for 5+5 min in a citrate buffer (pH 6.0) before being processed in an automatic immunohistochemistry staining machine according to standard procedures (TechMate500, Dako, Denmark) using a polyclonal VEGF (A-20) antibody diluted 1:400 recognizing VEGF 165, 189 and 121 (Santa Cruz, Calif., USA) and a monoclonal VEGFR2 antibody recognizing VEGFR2/KDR diluted 1:1000 (Santa Cruz, Calif., USA). Normal human kidneys were used as positive controls for VEGF-A and for VEGFR2, human aortic endothelium served as positive controls. VEGF-A was previously validated using an ELISA-based method (LR). The cytoplasmatic staining intensity was evaluated semi-quantitatively using a classification from 0-3, representing lack of staining (0), low staining intensity (1), intermediate staining intensity (2) and high staining intensity (3). Only invasive tumor cells were evaluated. In survival analyses, high staining intensity (grade 3) was compared with the other grades (0, 1, 2) for both VEGF-A and VEGFR2 in premenopausal patients. In postmenopausal patients lack of staining was compared with staining of any intensity.
# ER and PR were determined by immunohistochemistry in a tissue microarray. For this purpose, the Ventana Benchmark system (Ventana Medical Systems Inc., AZ, USA) with prediluted antibodies (Anti-ER Clone 6F11 and Anti-PgR Clone 16) was used. In line with the clinically established cut-off used for hormone receptor assessment, tumors with more than 10% positively staining nuclei were considered positive. In addition, the fractions of positive nuclei were quantified. […]
# (§2) For survival analyses all calculations were done according to the intention to treat rule. Recurrence-free survival (RFS) considered distant, local and regional metastasis as primary event as well as breast cancer death, whereas contralateral breast cancer was not included. The Kaplan-Meier method was used to estimate recurrence-free and breast cancer survival and the log-rank test to compare survival in different strata. Cox proportional hazards model was used for estimation of univariate hazard ratios (HRs) and multivariate analysis.
# [2] = test system: postmenopausal patients with stage II invasive breast cancer; assay: Randomised trial of two years of tamoxifen (40 mg/day) vs control in postmenopausal patients; type: in vivo, human
# Description: The patients included were enrolled in a multi-center clinical trial at Umea University Hospital, Sweden, during 1980-1987 (Trial II) included in the Oxford meta-analysis. The inclusion criteria were postmenopausal patients (>55 years) with stage II (pT1, pN1, pM0, pT2, pN0, pM0, pT2, […], pM0) invasive breast cancer. For patients older than 70 years, stage II and stage III breast cancer patients were included. Patients were operated with modified radical mastecomy. The hormone receptor level was not determined at time of randomization. Patients were randomized to control or tamoxifen treatment (40 mg/day) for two years by the Regional Oncologic Center and oral informed consent was registered on admission to the Oncological Clinic. The study was approved by the Ethical Committee at the Umea university 1980 as well as 2002 (modification regarding molecular markers used in tissue micro array). The median age was 66.5 years (55-75 years) at inclusion. The median follow-up time was 18 years (range 15-22 years) for surviving patients.
# as §1
# ER and PR were determined by immunohistochemistry in a tissue microarray. For this purpose, the Ventana Benchmark system (Ventana Medical Systems Inc., AZ, USA) with prediluted antibodies (Anti-ER Clone 6F11 and Anti-PgR Clone 16) was used. In line with the clinically established cut-off used for hormone receptor assessment, tumors with more than 10% positively staining nuclei were considered positive. In addition, the fractions of positive nuclei were quantified.
# as §2
# [3] = test system: hormone receptor positive breast cancer; conditions: adjuvant tamoxifen for five years; cited from earlier work
# [4] = Cox model with VEGFR2 status and interaction-variable, ER positive patients
# [5] = Cox model, ER positive patients
# [6] = Cox multivariate model with VEGF-A status and interaction-variable, ER positive patients
# [7] = Cox multivariate model, ER positive patients
# [8] = ER positive patients, univariate
# [9] = ER positive, HER2 low tumors, univariate
compound,measurement,setting,value
CC/C(=C(\c1ccccc1)c1ccc(OCCN(C)C)cc1)c1ccccc1 [tamoxifen],absolute risk reduction (recurrence),"[1]; 324 ER positive patients, two years of tamoxifen vs control",15%
same,"HR, OS, Randomization Tam v control",[1]; [4],0.6
same,"HR, RFS, Randomization Tam v control",[1]; [4],0.6
same,"HR, OS, interaction-variable tamoxifen treatment x VEGFR2 status",[1]; [5],5.2
same,"HR, RFS, interaction-variable tamoxifen treatment x VEGFR2 status",[1]; [5],2.2
same,"HR, OS, Randomization Tam v control",[1]; [6],1.1
same,"HR, RFS, Randomization Tam v control",[1]; [6],0.5
same,"HR, OS, interaction-variable tamoxifen treatment x VEGF-A status",[1]; [7],0.5
same,"HR, RFS, interaction-variable tamoxifen treatment x VEGF-A status",[1]; [7],1.5
same,"HR, OS (tamoxifen vs control)",[1]; ER negative disease,0.9
same,"HR, RFS (tamoxifen vs control)",[1]; ER negative disease,0.9
same,recurrence rate,"[1]; ER positive patients, tamoxifen treated group",36%
same,"HR, OS (tamoxifen vs control)",[1]; [8],0.8
same,"HR, RFS (tamoxifen vs control)",[1]; [8],0.6
same,"HR, OS (tamoxifen vs control)",[1]; [9],0.8
same,"HR, RFS (tamoxifen vs control)",[1]; [9],0.6
same,"HR, OS (tamoxifen vs control)","[1]; ER positive, HER 2 overexpressing tumor, univariate",0.9
same,"HR, RFS (tamoxifen vs control)","[1]; ER positive, HER2 overexpression, univariate",0.7
same,"HR, RFS (tamoxifen vs control)","[1]; ER positive, VEGF grade 3 tumors, univariate",0.8
same,"HR, RFS (tamoxifen vs control)","[1]; ER positive, VEGF-A grade 0-2 tumors, univariate",0.6
same,"HR, OS (tamoxifen vs control)","[1]; ER positive, VEGFA grade 0-2 tumors, univariate",0.8
same,"HR, OS (tamoxifen vs control)","[1]; ER positive, VEGFA grade 3 tumors, univariate",0.8
same,"HR, OS (tamoxifen vs control)","[1]; ER positive, VEGFR2 3",3.4
same,"HR, RFS (tamoxifen vs control)","[1]; ER positive, VEGFR2 grade 0, 1 or 2 staining intensity",0.6
same,"HR, OS (tamoxifen vs control)","[1]; ER positive, VEGFR2 grade 0-2",0.7
same,"HR, RFS (tamoxifen vs control)","[1]; ER positive, intense expression of VEGFR2 (grade 3)",1.4
same,"HR of interaction-variable VEGFR2 status x tamoxifen treatment, OS","[2]; Cox model, 10 years, ER positive >90% stained nuclei",0.2
same,"HR, OS at 10 years (tamoxifen vs control)","[2]; ER positive >90% stained nuclei, VEGF-A negative tumors",0.3
same,"HR, OS at 10 years (tamoxifen vs control)","[2]; ER positive >90% stained nuclei, VEGF-A positive tumors",0.8
same,"HR, OS at 10 years (tamoxifen vs control)","[2]; ER positive >90% stained nuclei, VEGFR2 negative tumors",0.2
same,"HR, OS at 10 years (tamoxifen vs control)","[2]; ER positive >90% stained nuclei, VEGFR2 positive tumors",0.9
same,effect on overall survival of tamoxifen treatment,[2]; all patients irrespective of hormone receptor content,non-significant
same,tamoxifen response (overall survival),"[2]; patients with >90% ER positive cells, 10 years","notable at 10-years, however not strictly significant"
same,reduction of death,[3],28%
same,reduction of recurrence,[3],50%
